Measured values taken from EP3161491B1, “[…] FOR THE DETECTION OF THE MANIPULATION OF MUSCLE GROWTH IN A DOMESTIC ANIMAL” (Stichting Kwaliteitsgarantie Vleeskalversector, priority 2014, dated 2015).

Key:
[1] = test system: myostatin pathway biomarkers; details: change relative to non-manipulated reference animal
Protocol: Example 2 was repeated using bovine samples analysed in Example 1.
Detection Conjugate "CHI-Bovine-IgG" (conjugated antibody: anti-Bovine IgG-heavy and light chain Antibody, Sheep Polyclonal, catalogue number: A10-115; Supplier: Bethyl Laboratories, Inc., USA) was used instead of the mouse conjugate. All other Imperacer conjugates for the additional myostatin pathway biomarkers were prepared using standard methods as described in EP 2189539 ([0106]-[0122]). For the biomarkers p-AKT, p-FOXO, MyOD1, MyoG, FBO32, ALK type 1, Pax3, Myf-5, MuRF1, CDKN1 and CDK2, tissue homogenate instead of serum was used. Table 7: Biomarker analysis
The additional myostatin pathway biomarkers shown in Table 7 were quantified using immune-PCR.

[2] = Observation of general health of calves during the 19 weeks treatment period; assay type: in vivo, Holstein-Friesian calves; details: three intramuscular treatments, 19 weeks observation
Protocol: Calves were randomly assigned into treatment groups.
All calves were treated with the myostatin propeptide fragment three times with during the observation period. Physical data and samples were collected during the life-time of the calves, such as general health, local reactions, and body weight. Serum samples were collected. Some clinical signs were observed, but they remained within a range that was considered normal for a 19 weeks fattening period. […] The animals were healthy at the time of slaughter and all slaughter samples were collected.

[3] = test system: anti-myostatin antibodies
Protocol: Calves were randomly assigned into treatment groups. Twenty one (21) Holstein-Friesian calves (12 male and 9 female) between 9 - 14 weeks of age were included in the study. […] The control group was only injected with the injection fluids, whereas the second group was treated with the myostatin propeptide fragment. The treatments were administered intramuscularly on day 0, day 35 and day 88 of the treatment. Animals were monitored during 19 weeks from the start of the treatment.
Myostatin propeptide fragment (SEQ ID NO 1) was dissolved in sterile arachis oil, and mixed with ViteSel, Freund's Adjuvant Incomplete, or Freund's Adjuvant Complete for injection. […] The control group was injected with the same injection fluid, but without the added peptide. […]
The coated microplate wells were coated with Imperacer® wash buffer "A" using washer-program "block", block against unspecific interaction with "chimera direct block" solution (240 µl/well, 1 min/RT) and with Imperacer® wash buffer "B". After this treatment, the microplate wells were ready for sample incubation. […]
The wells were subsequently washed with Imperacer® wash buffers "B" and "A". 30 µl/well of ready-to-use Imperacer® PCR-mastermix were added to each well. The wells were sealed using real-time PCR foil, and placed into the Imperacer® reader 50 cycles at 95°C with 12 sec per cycle, at 50°C for 30 sec and at 72°C for 30 sec. […]

Sequence: CKMSPINMLYFNGKEQIIYG [myostatin propeptide fragment]
- (P)-SMAD2/ SMAD 3 ([1]; calf sample): -
- Act IIB ([1]; calf serum): +
- IgG anti-myostatin antibodies ([1]; calf serum): +
- Leptin ([1]; calf serum): +
- Myostatin Propeptide ([1]; calf serum): -
- (p)-FOxO ([1]; calf tissue homogenate): +
- ALK type 1 ([1]; calf tissue homogenate): -
- CDK2 ([1]; calf tissue homogenate): +
- CDKN1 A ([1]; calf tissue homogenate): +
- FBXO32 ([1]; calf tissue homogenate): -
- MuRF1 ([1]; calf tissue homogenate): -
- Myf-5 ([1]; calf tissue homogenate): +
- MyoD1 ([1]; calf tissue homogenate): +
- MyoG ([1]; calf tissue homogenate): +
- Pax 3 ([1]; calf tissue homogenate): +
- p-AKT ([1]; calf tissue homogenate): +
- general health of the calves [2]: did not impact the general health of the calves
- Amount of antibodies measured in sample ([3]; anti-myostatin IgG in calf blood serum, intramuscular treatment on day 0, day 35 and day 88): 382 ng/mL
- levels of measured anti-myostatin IgG antibodies and treatment ([3]; blind and open tests, compared to the negative control animals): clear association
